Tests used:
[1] = molecular target: T1, mitochondrial pyruvate carrier MPC (Mus musculus, UniProt P63030+Q9D023); test: mitochondrial pyruvate uptake in intact astrocytes, mito-PyronicSF fluorescence; format: cell-based; details: 3 mM extracellular pyruvate; KRH buffer pH 7.4; 22–25°C
T1 construct: gene Mpc1; native carrier in intact cultured cortical astrocytes; read out as mitochondrial pyruvate uptake with mito-PyronicSF; subunit composition not determined
T1 sequence (P63030 2-109): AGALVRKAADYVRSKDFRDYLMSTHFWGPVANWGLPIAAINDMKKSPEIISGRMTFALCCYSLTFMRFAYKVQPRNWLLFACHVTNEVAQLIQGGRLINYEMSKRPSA
T1 sequence (Q9D023 1-127): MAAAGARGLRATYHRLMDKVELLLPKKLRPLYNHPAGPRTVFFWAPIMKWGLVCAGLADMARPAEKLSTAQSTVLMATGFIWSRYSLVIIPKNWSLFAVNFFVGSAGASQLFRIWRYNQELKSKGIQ

[2] = molecular target: T1, mitochondrial pyruvate carrier MPC; test: as above; format: cell-based; details: 3 mM extracellular pyruvate; KRH buffer pH 7.4; 22–25°C; remark: listed apart in the source

Row | % uptake inhibition at 10 μM [1] [%] | % uptake inhibition at 30 μM [2] [%] | Structure (SMILES)
1 | 69 |  | N#C/C(=C\c1cn(-c2ccccc2)c2ccccc12)C(=O)O [UK-5099]
2 |  | 67 | CN(CCOc1ccc(CC2SC(=O)NC2=O)cc1)c1ccccn1 (centres unmarked) [rosiglitazone]
